Like-named read-outs stand apart in the source and are kept apart here.
Assays:
[1] = test system: phosphorylation of the IRF-3 protein in MDA-MB-468 cells; assay: pIRF3 immunocytochemistry cell based assay; conditions: Homo sapiens
Outline: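 After 2 h stimulation with Poly(I:C) (10 ug/ml), following 1 h compound pre-treatment (10-point, 3-fold dilution, top 10 uM), MDA-MB-468 cells were fixed and stained with anti-pIRF3 antibody. pIRF3 fluorescence was normalized to PI staining or cell count on an Acumen cytometer. IC50 curves were derived from this.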

[2] = target: T1, IKKε (Homo sapiens, UniProt Q14164); assay: IKKe Biochemical Assay; conditions: read-out: IKKε IC50
T1 sequence (Q14164 1-716): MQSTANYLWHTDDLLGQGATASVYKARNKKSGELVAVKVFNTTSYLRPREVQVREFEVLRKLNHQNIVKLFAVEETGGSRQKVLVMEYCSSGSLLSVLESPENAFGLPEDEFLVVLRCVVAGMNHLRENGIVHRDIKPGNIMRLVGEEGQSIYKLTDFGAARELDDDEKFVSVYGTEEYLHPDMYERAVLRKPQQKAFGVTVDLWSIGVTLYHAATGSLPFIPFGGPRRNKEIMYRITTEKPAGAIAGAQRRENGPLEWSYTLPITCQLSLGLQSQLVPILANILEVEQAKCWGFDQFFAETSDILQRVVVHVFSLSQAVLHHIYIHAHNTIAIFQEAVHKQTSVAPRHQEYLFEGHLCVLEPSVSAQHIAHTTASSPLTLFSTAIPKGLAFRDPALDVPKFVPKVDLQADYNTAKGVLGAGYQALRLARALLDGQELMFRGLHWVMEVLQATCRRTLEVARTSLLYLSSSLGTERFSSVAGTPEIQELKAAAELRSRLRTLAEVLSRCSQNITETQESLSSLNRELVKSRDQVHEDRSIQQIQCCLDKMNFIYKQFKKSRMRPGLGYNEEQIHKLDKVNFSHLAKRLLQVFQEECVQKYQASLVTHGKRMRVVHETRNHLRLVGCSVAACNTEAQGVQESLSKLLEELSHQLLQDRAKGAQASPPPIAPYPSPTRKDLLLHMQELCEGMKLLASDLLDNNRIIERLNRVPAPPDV
Outline: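 Activity was measured as mobility-shift separation of phosphorylated from unphosphorylated substrate on a LabChip EZ Reader. Compound was titrated from 30 uM final in 10 points, 1:4 steps, with 1% DMSO, and enzyme plus substrate reacted 90 min at 25° C before stop buffer. Control wells held 10 uM staurosporine.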

[3] = target: T2, TBK1 (Homo sapiens, UniProt Q9UHD2); assay: TBK Biochemical Assay; conditions: read-out: TBK1 IC50
T2 sequence (Q9UHD2 1-729): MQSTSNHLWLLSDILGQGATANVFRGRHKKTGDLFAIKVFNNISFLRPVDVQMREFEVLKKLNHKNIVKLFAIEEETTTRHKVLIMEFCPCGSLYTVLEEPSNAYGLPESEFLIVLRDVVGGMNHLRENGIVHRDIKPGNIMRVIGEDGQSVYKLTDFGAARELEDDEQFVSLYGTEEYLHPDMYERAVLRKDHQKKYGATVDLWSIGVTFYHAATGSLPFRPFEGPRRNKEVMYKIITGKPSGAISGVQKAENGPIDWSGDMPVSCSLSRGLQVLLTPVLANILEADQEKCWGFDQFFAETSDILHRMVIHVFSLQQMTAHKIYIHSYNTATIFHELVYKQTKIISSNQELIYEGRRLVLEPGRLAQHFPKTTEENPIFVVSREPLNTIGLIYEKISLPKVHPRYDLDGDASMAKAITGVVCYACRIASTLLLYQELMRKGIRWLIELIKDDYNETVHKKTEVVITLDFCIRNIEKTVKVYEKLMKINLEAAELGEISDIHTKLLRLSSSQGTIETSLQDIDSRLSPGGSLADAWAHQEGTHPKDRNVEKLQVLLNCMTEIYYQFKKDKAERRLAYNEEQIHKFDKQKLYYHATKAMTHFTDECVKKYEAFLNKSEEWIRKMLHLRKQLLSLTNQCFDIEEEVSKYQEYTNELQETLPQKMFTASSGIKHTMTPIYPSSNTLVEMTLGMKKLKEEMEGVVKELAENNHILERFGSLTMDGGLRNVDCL
Outline: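 Caliper LabChip mobility-shift readout of substrate and product after 90 min of TBK1 reaction at 25° C and stop-buffer addition. Compounds tested in 1:4 serial dilution over 10 points from 30 uM final at 1% DMSO; staurosporine 10 uM final defines full inhibition.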

[4] = MDA-MB-468 cells, Poly(I:C) stimulation, read-out: pIRF3 IC50

| SMILES | IC50 [1, 4] | IC50 [2] | IC50 [3] | IC50 ([1]; MDA-MB-468, read-out: pIRF3 IC50) |
| --- | --- | --- | --- | --- |
| COc1cc(C(=O)N2CCCC2)ccc1-c1cc2nccc(-c3ccc(OC4CCOCC4)c(C#N)c3)c2o1 [Compound 37, 5-{2-[2-Methoxy-4-(pyrrolidine-1-carbonyl)-phenyl]-furo[3,2-b]pyridin-7-yl}-2-(tetrahydro-pyran-4-yloxy)-benzonitrile] | 100 to 1000 nM | < 100 nM | < 100 nM | – |
| COc1cc(C(=O)N(C)C)ncc1-c1cc2nccc(-c3ccc(N4CCC(F)C4)c(C#N)c3)c2o1 (stereo in doubt) [Compound 389, 5-{7-[3-Cyano-4-((S)-3-fluoro-pyrrolidin-1-yl)-phenyl]-furo[3,2-b]pyridin-2-yl}-4-methoxy-pyridine-2-carboxylic acid dimethylamide] | 100 to 1000 nM | < 100 nM | < 100 nM | – |
| COc1cc(C(=O)N2C[C@H]3C[C@@H]2CN3C)ccc1-c1cc2nccc(-c3ccc(NC4CCOCC4)c(C#N)c3)c2o1 [Compound 517] | < 100 nM | < 100 nM | < 100 nM | – |
| COc1cc(C(=O)N(C)C)n(C)c1-c1cc2nccc(-c3ccc(OC4CCOCC4)c(C#N)c3)c2o1 [Compound 402, 5-[7-[3-cyano-4-(oxan-4-yloxy)phenyl]furo[3,2-b]pyridin-2-yl]-4-methoxy-N,N,1-trimethyl-1H-pyrrole-2-carboxamide] | < 100 nM | < 100 nM | < 100 nM | – |
| CN(CCO)C(=O)c1ccc(-c2cc3ncc(F)c(-c4ccc(NC5CCOCC5)c(C#N)c4)c3o2)c(F)c1 [Compound 303, 4-(7-[3-cyano-4-[(oxan-4-yl)amino]phenyl]-6-fluorofuro[3,2-b]pyridin-2-yl)-3-fluoro-N-(2-hydroxyethyl)-N-methylbenzamide] | 100 to 1000 nM | 100 to 1000 nM | 100 to 1000 nM | – |
| N#Cc1cc(-c2ccnc3cc(-c4ccc(C(=O)N5CCC(F)(F)C5)cc4)oc23)ccc1OC1CCOCC1 [Compound 148, 5-{2-[4-(3,3-Difluoro-pyrrolidine-1-carbonyl)-phenyl]-furo[3,2-b]pyridin-7-yl}-2-(tetrahydro-pyran-4-yloxy)-benzonitrile] | 1000 to 5000 nM | < 100 nM | < 100 nM | – |
| COc1cc(C(=O)NC2CCN(C)CC2O)ccc1-c1cc2nccc(-c3ccc(OC4CCOCC4)c(C#N)c3)c2o1 (stereo not drawn) [Compound 347, 4-[7-[3-cyano-4-(oxan-4-yloxy)phenyl]furo[3,2-b]pyridin-2-yl]-N-(3-hydroxy-1-methylpiperidin-4-yl)-3-methoxybenzamide] | 100 to 1000 nM | < 100 nM | < 100 nM | – |
| COc1cc(C(=O)NC2C3COCC32)ncc1-c1cc2nccc(-c3ccc(N4CC[C@H](F)C4)c(C#N)c3)c2o1 (stereo partly drawn) [Compound 451, 5-(7-[3-cyano-4-[(3S)-3-fluoropyrrolidin-1-yl]phenyl]furo[3,2-b]pyridin-2-yl)-4-methoxy-N-[3-oxabicyclo[3.1.0]hexan-6-yl]pyridine-2-carboxamide] | 100 to 1000 nM | < 100 nM | < 100 nM | – |
| CN(C)C(=O)c1ccc(-c2cc3nccc(-c4ccc(OC5CCCOC5)c(C#N)c4)c3o2)cc1 (stereo not drawn) [Compound 160] | 1000 to 5000 nM | < 100 nM | 100 to 1000 nM | – |
| COc1cc(C(=O)N(C)C)cnc1-c1cc2nccc(-c3ccc(OC4CCN(C)C4)c(C#N)c3)c2o1 (stereo not drawn) [Compound 426, 6-(7-[3-cyano-4-[(1-methylpyrrolidin-3-yl)oxy]phenyl]furo[3,2-b]pyridin-2-yl)-5-methoxy-N,N-dimethylpyridine-3-carboxamide] | 100 to 1000 nM | 100 to 1000 nM | 100 to 1000 nM | – |
| CN(C)C(=O)c1ccc(-c2cc3nccc(-c4ccc(OC5CCOC(C)(C)C5)c(C#N)c4)c3o2)cc1 (stereo not drawn) [Compound 170, 4-{7-[3-Cyano-4-(2,2-dimethyl-tetrahydro-pyran-4-yloxy)-phenyl]-furo[3,2-b]pyridin-2-yl}-N,N-dimethyl-benzamide] | 1000 to 5000 nM | 100 to 1000 nM | 100 to 1000 nM | – |
| COc1cc(C(=O)N2CC[C@H](N(C)C)C2)ncc1-c1cc2nccc(-c3ccc(N4CC[C@H](F)C4)c(C#N)c3)c2o1 [Compound 449, 5-[2-(6-[[(3S)-3-(dimethylamino)pyrrolidin-1-yl]carbonyl]-4-methoxypyridin-3-yl)furo[3,2-b]pyridin-7-yl]-2-[(3S)-3-fluoropyrrolidin-1-yl]benzonitrile] | < 100 nM | < 100 nM | < 100 nM | – |
| N#Cc1cc(-c2ccnc3cc(-c4ccc(C(=O)NC5CN6CCC5CC6)cc4)oc23)ccc1OC1CCCOC1 (stereo not drawn) [Compound 171] | 100 to 1000 nM | 100 to 1000 nM | 100 to 1000 nM | – |
| COc1cc(C(=O)NC2CC(N3CCCC3)C2)ccc1-c1cc2nccc(-c3ccc(OC4CCOCC4)c(C#N)c3)c2o1 (stereo not drawn) [Compound 371, 4-(7-(3-cyano-4-(tetrahydro-2H-pyran-4-yloxy)phenyl)furo[3,2-b]pyridin-2-yl)-3-methoxy-N-(3-(pyrrolidin-1-yl)cyclobutyl)benzamide] | – | < 100 nM | < 100 nM | 100 to 1000 nM |

Continued, in another order:

| IC50 [1, 4] | IC50 [2] | IC50 [3] | SMILES | IC50 ([1]; MDA-MB-468, read-out: pIRF3 IC50) |
| --- | --- | --- | --- | --- |
| 100 to 1000 nM | < 100 nM | < 100 nM | COc1cc(C(=O)N(C)C)ccc1-c1cc2nccc(-c3ccc(NCC4CCOC4)c(C#N)c3)c2o1 (stereo not drawn) [Compound 36] | – |
| 100 to 1000 nM | 100 to 1000 nM | 100 to 1000 nM | COc1cc(C(=O)N(C)C)cnc1-c1cc2nccc(-c3ccc(OC4CCNC4)c(C#N)c3)c2o1 (stereo not drawn) [Compound 487, 6-{7-[3-Cyano-4-(pyrrolidin-3-yloxy)-phenyl]-furo[3,2-b]pyridin-2-yl}-5-methoxy-N,N-dimethyl-nicotinamide] | – |
| < 100 nM | < 100 nM | < 100 nM | COc1cc(C(=O)NC(C)(C)CN(C)C)ccc1-c1cc2nccc(-c3ccc(OC4CCOCC4)c(C#N)c3)c2o1 [Compound 63, 4-{7-[3-Cyano-4-(tetrahydro-pyran-4-yloxy)-phenyl]-furo[3,2-b]pyridin-2-yl}-N-(2-dimethylamino-1,1-dimethyl-ethyl)-3-methoxy-benzamide] | – |
| 100 to 1000 nM | < 100 nM | < 100 nM | COc1cc(C(=O)NC2C3COCC32)cnc1-c1cc2nccc(-c3ccc(N4CC[C@@H](F)C4)c(C#N)c3)c2o1 (stereo partly drawn) [Compound 466, 6-{7-[3-Cyano-4-((R)-3-fluoro-pyrrolidin-1-yl)-phenyl]-furo[3,2-b]pyridin-2-yl}-5-methoxy-N-(3-oxa-bicyclo[3.1.0]hex-6-yl)-nicotinamide] | – |
| 1000 to 5000 nM | 100 to 1000 nM | 100 to 1000 nM | COc1cc(C(=O)N(C)C)ccc1-c1cc2nccc(-c3ccc(NC4CC(C)(C)OC(C)(C)C4)c(C#N)c3)c2o1 [Compound 471, 4-(7-[3-cyano-4-[(2,2,6,6-tetramethyloxan-4-yl)amino]phenyl]furo[3,2-b]pyridin-2-yl)-3-methoxy-N,N-dimethylbenzamide] | – |
| 1000 to 5000 nM | 100 to 1000 nM | 100 to 1000 nM | COc1cc(C(=O)N(C)C)ccc1-c1cc2nccc(-c3cc(C#N)c(OC4CCOCC4)cn3)c2o1 [Compound 161, 4-{7-[4-Cyano-5-(tetrahydro-pyran-4-yloxy)-pyridin-2-yl]-furo[3,2-b]pyridin-2-yl}-3-methoxy-N,N-dimethyl-benzamide] | – |

Reference: patent US10428080B2, “TBK/IKK inhibitor compounds and uses thereof” (Merck Patent GmbH, priority 2015, dated 2019)
